Assay [1] deals with PC-3 cells (human prostate cancer cells). Put plainly: PC-3 cell proliferation (MTT). Format: cell-based. To be noted: 24 hours. As to the method:
Antiproliferative activity of representative compounds on cancer cells was also undertaken by using PC-3 cells (human prostate cancer cells). PC-3 cells were cultured for 24 hours in 96-well plates with or without Compounds or Positive Control (PCtrl: sodium 2-(2-hydroxy-3,5-dipentylphenyl)acetate) or Setogepram CAS No.: 1002101-19-0 from MedChemExpress LLC, USA) at various concentrations. The last four hours of incubation, 50 μl of a freshly made solution of MTT at 2 mg/ml in PBS were added. Cells were harvested, 150 μl of DMSO were added to solubilize the formazan crystal formed and the plates were read the plate at 570 nm.

Assay [2] has as its system carboplatin-resistant PDX glioblastoma (GBM20-75). Put plainly: Avatar CAM assay, patient-derived xenograft glioblastoma. Format: in vivo, human. To be noted: FIG. 3, PDX glioblastoma resistant to carboplatin. Here is the method: (§1) In this example, representative compounds of the present disclosure were tested for their respective effect on tumors using a model of Avatar Chick Chorioallantoic Membrane (CAM) assay. CAM assays have been widely used to study angiogenesis and tumor invasion of colorectal, prostate and brain cancers, as well as for studying patient-derived xenograft for potential personalized medicine.
(§2) The present inventor has tested representative compounds from the present disclosure or a Positive Control (PCtrl: sodium 2-(2-hydroxy-3,5-dipentylphenyl)acetate) as per the following. Fertilized eggs from white leghorn chicken were used and incubated in an Ova-Easy egg incubator at 37° C. with 60% humidity. At day 3, eggs were cracked. At day 9, U87 (human glioblastoma) cell suspensions (1×10^6 cells), or Caki cells or patient-derived xenograph (glioblastoma fragment) were mixed (1:1) with growth factor reduced Matrigel™ in a total volume of 20 μl for cell lines and POX-patient fragments were placed directly on top of the CAM and were returned to the incubator. Intravenous injection at day 11 or topical administration (Day 11 to Day 16) with or without the compounds. At day 16, chick embryos were killed by decapitation. Tumours were removed and tumour volumes were calculated using the formula: (Dd^2/3).

The test system of a further assay is human glioblastoma U87. Briefly: Avatar CAM assay, U87 tumour. The assay is classed as in vivo. To be noted: for Anticancer Activity U87: Avatar CAM, tumour volume at day 16, symbols X to XXXX not defined. As to the method: as §1, §2
Assay [3] deals with human renal carcinoma Caki cells. Briefly: Avatar CAM assay, Caki tumour. Format: in vivo. To be noted: for Anticancer Activity Caki: Avatar CAM, tumour volume at day 16, symbols X to XXXX not defined; for anticancer activity relative to Sorafenib: FIG. 2, Caki cells in CAM Avatar model. Here is the method: as §1, §2
Assay [4] has as its system PDX-fragments from IPF lungs. Put plainly: Avatar CAM model, PDX-IPF lung fragments (volume, Masson's trichrome). The assay is classed as in vivo, human. The settings on record: for collagen deposition in the PDX-IPF fragment: FIG. 5, Masson's trichrome staining. As to the method: Avatar CAM model was also used to determine the antifibrotic activity of the representative compounds. Briefly, fertilized eggs from white leghorn chicken were used and incubated in an Ova-Easy egg incubator at 37° C. with 60% humidity. At day 3, eggs were cracked. At day 9, PDX-fragments from IPF lungs were grafted on top of the CAM and were returned to the incubator. Treatment by intravenous injection of compounds was performed at day 11 and at day 16, chick embryos were killed by decapitation. IPF-PDX fragments were removed and volumes were calculated using the formula: (Dd^2/3). Fibrosis was determined by a Masson's trichrome staining.

Assay [5] has as its system human fibrosarcoma HT1080 cell. Put plainly: Avatar CAM assay, HT1080 tumour. To be noted: tumour volume at day 16, symbols X to XXXX not defined. The assay is classed as in vivo.

“Also recorded” adds a separate entry of the source.

The inhibition is the change of the read-out against control, counted positive when it falls. A higher inhibition goes with strong suppression.

In assay [1], `CCCCCc1cc(CCCCC)c(O)c(CC(=O)O)c1` [PCtrl, sodium 2-(2-hydroxy-3,5-dipentylphenyl)acetate, reference compound] gave an inhibition at 12.5 µM of 0%, an inhibition at 25 µM of 0%, an inhibition at 50 µM of 0% and an inhibition at 100 µM of 0%. For the same compound, the inhibition at 200 µM in assay [1] was 20%.
With `CCCCCc1cc(CCCCC)c(O)c(CC(N)=O)c1` [Representative Compound 1], in assay [1], testing at 12.5 µM gave an inhibition of 0%, the inhibition at 25 µM was 0%, 50 µM produced 0% inhibition and the inhibition at 100 µM was 0%. Moreover, at 200 µM the inhibition in assay [1] was 0%.
Regarding `CCCCCc1cc(CCO)c(O)c(CCCCC)c1` [Representative Compound 2], the “growth (volume) response of PDX glioblastoma to treatment” value in assay [2] was “does not respond”. The “Anticancer Activity U87” value in the assay on human glioblastoma U87 is “XXX”. In assay [1], this compound showed an inhibition at 12.5 µM of 0%, an inhibition at 25 µM of 63.6%, an inhibition at 50 µM of 70% and an inhibition at 100 µM of 72.2%. Moreover, the inhibition at 200 µM in assay [1] came out at 66.3%. In assay [3], the “Anticancer Activity Caki” value is “XXXX” and the “anticancer activity relative to Sorafenib” value was “reach the anticancer activity of Sorafenib”.
On to `CCCCCc1cc(CCO)c(N)c(CCCCC)c1` [Representative Compound 3], for which, in assay [1], testing at 12.5 µM gave an inhibition of 0%, the inhibition at 25 µM was found to be 39.1%, the inhibition at 50 µM was 67.4% and 100 µM produced 62.1% inhibition. In assay [1], this compound came in with an inhibition at 200 µM of 65.8%.
`CCCCCc1cccc(CCO)c1` [Representative Compound 4]: the “Antifibrotic Activity PDX (IPF lungs)” value in assay [4] (Avatar CAM, reduction of volume growth of PDX-IPF fragments, symbols not defined) was “XXXX”. For the same compound, the “volume of the PDX-IPF fragments” value in assay [4] (FIG. 4, intravenous injection at day 11, volume at day 16) is reported as “reduces significantly the volume”. Also, the “collagen deposition in the PDX-IPF fragment” value in assay [4] is “reduce collagen deposition”. Besides, the “Anticancer Activity HT1080” value in assay [5] is given as “XXX”. In assay [1], this compound had an inhibition at 62.5 µM of 26.1%, an inhibition at 125 µM of 30.3%, an inhibition at 250 µM of 74.2% and an inhibition at 500 µM of 72.9%. 1000 µM produced 70.4% inhibition in assay [1].
With `OCCc1cc(Cc2ccccc2)cc(Cc2ccccc2)c1` [Representative Compound 5], the “Anticancer Activity HT1080” value in assay [5] was “XXX”. The “Anticancer Activity U87” value in the assay on human glioblastoma U87 is given as “XXXX”. For the same compound, in the assay on human glioblastoma U87 (FIG. 1, U87 in CAM Avatar model), the “anticancer activity relative to carboplatin” value is given as “reached the anticancer activity of carboplatin”. In assay [1], this compound came in with an inhibition at 12.5 µM of 1.7%, an inhibition at 25 µM of 42.8%, an inhibition at 50 µM of 70.6% and an inhibition at 100 µM of 72.2%. This compound came in with an inhibition at 200 µM in assay [1] of 53%. In assay [3], the “Anticancer Activity Caki” value is “XXXX” and the “anticancer activity relative to Sorafenib” value is reported as “reach the anticancer activity of Sorafenib”.
As to `CCCCCc1cccc(CC(=O)O)c1` [Setogepram, reference compound], in assay [4], the “collagen deposition in the PDX-IPF fragment” value was “reduce collagen deposition; also recorded: reduced the collagen deposition”. In assay [1], the inhibition at 62.5 µM was found to be 16.8%, 125 µM produced 5.7% inhibition, testing at 250 µM gave an inhibition of 10.4% and at 500 µM the inhibition was 0%. In assay [1], this compound showed an inhibition at 1000 µM of 0%.
For the compound `N.N.O=C([O-])C1(C(=O)[O-])CCC1.[Pt+2]` [carboplatin, reference compound], the “growth (volume) response of PDX glioblastoma to treatment” value in assay [2] was “effectively resistant”.
